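Cells were grown in 96-well plates and exposed to each compound for 48 hours at five concentrations; endpoints were interpolated linearly between bracketing concentrations, or set to the highest concentration if not reached. TGI is the concentration that stops growth completely.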
Columns and labels:
Assay in all cases: NCI-60 cell line screen, 48 h
HS 578T breast = tested on: HS 578T breast
SK-MEL-28 melanoma = tested on: SK-MEL-28 melanoma
IGROV1 ovarian = tested on: IGROV1 ovarian
PC-3 prostate = tested on: PC-3 prostate
SF-268 CNS = tested on: SF-268 CNS
NCI-H522 lung = tested on: NCI-H522 lung
SF-295 CNS = tested on: SF-295 CNS
HCC-2998 colon = tested on: HCC-2998 colon
A549 NSCLC = tested on: A549 NSCLC
SN12C renal = tested on: SN12C renal
MDA-N = tested on: MDA-N
OVCAR-5 ovarian = tested on: OVCAR-5 ovarian
BT-549 breast = tested on: BT-549 breast
COLO 205 colon = tested on: COLO 205 colon
HOP-62 NSCLC = tested on: HOP-62 NSCLC
HCT-15 colon = tested on: HCT-15 colon
ACHN renal = tested on: ACHN renal
EKVX NSCLC = tested on: EKVX NSCLC
OVCAR-3 ovarian = tested on: OVCAR-3 ovarian
MOLT-4 leukemia = tested on: MOLT-4 leukemia
LOX IMVI melanoma = tested on: LOX IMVI melanoma
HCT-116 colon = tested on: HCT-116 colon
NCI-H226 lung = tested on: NCI-H226 lung
U251 CNS = tested on: U251 CNS
DU-145 prostate = tested on: DU-145 prostate
MDA-MB-435 = tested on: MDA-MB-435
UO-31 renal = tested on: UO-31 renal
SK-MEL-2 melanoma = tested on: SK-MEL-2 melanoma
TK-10 renal = tested on: TK-10 renal
NCI-H23 lung = tested on: NCI-H23 lung
HT29 colon = tested on: HT29 colon
RXF 393 renal = tested on: RXF 393 renal
MDA-MB-231 breast = tested on: MDA-MB-231 breast
OVCAR-8 ovarian = tested on: OVCAR-8 ovarian
NCI-H460 lung = tested on: NCI-H460 lung
OVCAR-4 ovarian = tested on: OVCAR-4 ovarian
CCRF-CEM leukemia = tested on: CCRF-CEM leukemia
HL-60(TB) leukemia = tested on: HL-60(TB) leukemia
CAKI-1 renal = tested on: CAKI-1 renal
A498 renal = tested on: A498 renal
KM12 colon = tested on: KM12 colon
SNB-75 CNS = tested on: SNB-75 CNS
NCI/ADR-RES ovarian = tested on: NCI/ADR-RES ovarian
MCF7 breast = tested on: MCF7 breast
RPMI-8226 leukemia = tested on: RPMI-8226 leukemia
HOP-92 NSCLC = tested on: HOP-92 NSCLC
786-0 renal = tested on: 786-0 renal
MALME-3M melanoma = tested on: MALME-3M melanoma
UACC-257 melanoma = tested on: UACC-257 melanoma
SF-539 CNS = tested on: SF-539 CNS
SK-MEL-5 melanoma = tested on: SK-MEL-5 melanoma
SW-620 colon = tested on: SW-620 colon
SR leukemia = tested on: SR leukemia
K-562 leukemia = tested on: K-562 leukemia

Structure (SMILES): CNC(=O)OCc1nc(N=[N+]=[N-])n(C)c1COC(=O)NC
- TGI (HS 578T breast): > 100 µM
- TGI (SK-MEL-28 melanoma): > 100 µM
- TGI (IGROV1 ovarian): > 100 µM
- TGI (PC-3 prostate): > 100 µM
- TGI (SF-268 CNS): > 100 µM
- TGI (NCI-H522 lung): 40.7 µM
- TGI (SF-295 CNS): > 100 µM
- TGI (HCC-2998 colon): > 100 µM
- TGI (A549 NSCLC): > 100 µM
- TGI (SN12C renal): > 100 µM
- TGI (MDA-N): > 100 µM
- TGI (OVCAR-5 ovarian): > 100 µM
- TGI (BT-549 breast): > 10 µM
- TGI (COLO 205 colon): > 100 µM
- TGI (HOP-62 NSCLC): > 100 µM
- TGI (HCT-15 colon): > 100 µM
- TGI (ACHN renal): > 100 µM
- TGI (EKVX NSCLC): > 100 µM
- TGI (OVCAR-3 ovarian): > 100 µM
- TGI (MOLT-4 leukemia): 88.3 µM
- TGI (LOX IMVI melanoma): > 100 µM
- TGI (HCT-116 colon): > 100 µM
- TGI (NCI-H226 lung): > 100 µM
- TGI (U251 CNS): > 100 µM
- TGI (DU-145 prostate): > 100 µM
- TGI (MDA-MB-435): > 100 µM
- TGI (UO-31 renal): > 10 µM
- TGI (SK-MEL-2 melanoma): 80.6 µM
- TGI (TK-10 renal): > 100 µM
- TGI (NCI-H23 lung): > 100 µM
- TGI (HT29 colon): > 100 µM
- TGI (RXF 393 renal): 54.5 µM
- TGI (MDA-MB-231 breast): > 100 µM
- TGI (OVCAR-8 ovarian): > 100 µM
- TGI (NCI-H460 lung): > 100 µM
- TGI (OVCAR-4 ovarian): > 100 µM
- TGI (CCRF-CEM leukemia): > 100 µM
- TGI (HL-60(TB) leukemia): 48.9 µM
- TGI (CAKI-1 renal): 61 µM
- TGI (A498 renal): > 100 µM
- TGI (KM12 colon): > 100 µM
- TGI (SNB-75 CNS): > 100 µM
- TGI (NCI/ADR-RES ovarian): > 100 µM
- TGI (MCF7 breast): > 100 µM
- TGI (RPMI-8226 leukemia): > 100 µM
- TGI (HOP-92 NSCLC): 86.7 µM
- TGI (786-0 renal): > 10 µM
- TGI (MALME-3M melanoma): > 100 µM
- TGI (UACC-257 melanoma): > 100 µM
- TGI (SF-539 CNS): > 100 µM
- TGI (SK-MEL-5 melanoma): > 10 µM
- TGI (SW-620 colon): > 100 µM
- TGI (SR leukemia): 86 µM
- TGI (K-562 leukemia): > 100 µM
